Laboratory results from patent US9822139B2, “Pharmaceutical composition containing cyclometalated N-heterocyclic carbene complexes for cancer treatment” (THE UNIVERSITY OF HONG KONG, priority 2009, dated 2017).
pIC50: −log10 of the molar value.

Tests used:
[1] = test system: camptothecin-resistant cell line KB100; assay: MTT cytotoxicity assay, KB100; format: cell-based, human; conditions: 72 h
Protocol: (§1) Example 2 describes the in vitro cytotoxicity, which is indicative of the induction of cell death and/or inhibition of cellular proliferation of cancer cells, of the cyclometalated N-heterocyclic complexes on cervical epithelioid carcinoma, hepatocellular carcinoma, leukemia, nasopharyngeal carcinoma, breast carcinoma, melanoma, and lung carcinoma.
(§2) By means of MTT assays, the cytotoxic properties of cyclometalated N-heterocyclic carbene complexes (1-25) were determined toward some established human cancer cell lines including hepatocellular carcinoma (HepG2), cervical epithelioid carcinoma (HeLa), epithelial carcinoma (KB and its camptothecin-resistant cell line KB100), non-small cell lung carcinoma (NCI-H460), leukemia (HL-60), breast carcinoma (MDA-MB-231), melanoma (B16) and nasopharyngeal carcinoma (SUNE1). […] In terms of the IC50 values, they display similar cytotoxic properties compared to the reference complexes cisplatin and camptothecin (CPT).

[2] = test system: lung fibroblast cells (CCD-19Lu); assay: MTT cytotoxicity to non-cancerous cells, CCD-19Lu; format: cell-based, human; conditions: 72 h, non-cancerous lung fibroblast cells CCD-19Lu
Protocol: as §2
Using lung fibroblast cells (CCD-19Lu), the cytotoxicity of the complexes to non-cancerous cells was also examined.

[3] = test system: hepatocellular carcinoma (HepG2); assay: MTT cytotoxicity assay, HepG2; format: cell-based, human; conditions: 72 h
Protocol: as §1, §2

[4] = test system: nasopharyngeal carcinoma (SUNE1); assay: MTT cytotoxicity assay, SUNE1; format: cell-based, human; conditions: 72 h
Protocol: as §1, §2

[5] = test system: melanoma (B16); assay: MTT cytotoxicity assay, B16; format: cell-based, mouse; conditions: 72 h
Protocol: as §1, §2

[6] = test system: leukemia (HL-60); assay: MTT cytotoxicity assay, HL-60; format: cell-based, human; conditions: 72 h
Protocol: as §1, §2

[7] = test system: non-small cell lung carcinoma (NCI-H460); assay: MTT cytotoxicity assay, NCI-H460; format: cell-based, human; conditions: 72 h
Protocol: as §1, §2

[8] = test system: epithelial carcinoma (KB); assay: MTT cytotoxicity assay, KB; format: cell-based, human; conditions: 72 h
Protocol: as §1, §2

[9] = test system: breast carcinoma (MDA-MB-231); assay: MTT cytotoxicity assay, MDA-MB-231; format: cell-based, human; conditions: 72 h, MBA-MD-231
Protocol: as §1, §2

[10] = test system: cervical epithelioid carcinoma (HeLa); assay: MTT cytotoxicity assay, HeLa; format: cell-based, human; conditions: 72 h
Protocol: as §1, §2

[11] = test system: KB cells; assay: Alkaline comet assay for DNA strand breaks; format: cell-based

Compound | pIC50 [1] | pIC50 [2] | pIC50 [3] | pIC50 [4] | pIC50 [5] | pIC50 [6] | pIC50 [7] | pIC50 [8] | pIC50 [9] | pIC50 [10] | strand breaks on chromosomal DNA (comet assay) ([11]; 1 μg/ml, 3 h, KB cells) | reversal of DNA cleavage events upon second incubation ([11]; second incubation at 55° C. for 10 min)
Cc1cc(C)c(-[n+]2ccn(CC(=O)c3ccccc3)[c]2[Au-]23[c]4ccccc4-c4cccc([n+]42)-c2cccc[c]23)c(C)c1.O=S(=O)([O-])C(F)(F)F [Complex 5] | 5.40 | 4.96 | 5.59 | 5.47 | 5.68 | 5.92 | 5.02 | 5.36 | 4.89 | 5.46 |  | 
CCn1cc[n+](CC)[c]1[Pt-2]12[c]3ccccc3-c3cccc([n+]31)-c1cccc[n+]12.F[P-](F)(F)(F)(F)F (stereo not shown) [Complex 12] | 6.11 | 5.68 | 5.89 | 6.49 | 5.74 | 6.28 | 6.24 | 6.05 | 5.92 | 6.32 |  | 
CCCCn1cc[n+](C[n+]2ccn(CCCC)[c]2[Au-]23[c]4ccccc4-c4cccc([n+]42)-c2cccc[c]23)[c]1[Au-]12[c]3ccccc3-c3cccc([n+]31)-c1cccc[c]12.O=S(=O)([O-])C(F)(F)F.O=S(=O)([O-])C(F)(F)F [Complex 2] | 4.55 | < 4.00 | 5.10 | 5.48 | 5.00 | 5.23 | 5.52 | 5.00 | 5.38 | 5.11 |  | 
Cc1cc(C)c(-[n+]2ccn(CCCO)[c]2[Pt-2]23[c]4ccccc4-c4cccc([n+]42)-c2cccc[n+]23)c(C)c1.F[P-](F)(F)(F)(F)F (stereo not shown) [Complex 23] |  | 5.12 | 6.11 | 6.03 |  |  |  |  |  | 6.32 |  | 
CCCn1cc[n+](CCC)[c]1[Pt-2]12[c]3ccccc3-c3cccc([n+]31)-c1cc3ccccc3c[n+]12.F[P-](F)(F)(F)(F)F (stereo not shown) [Complex 24] |  | 4.92 | 6.06 | 6.15 |  |  |  |  |  | 6.26 |  | 
CCCn1cc[n+](CCC)[c]1[Pt-2]12[c]3ccccc3-c3cccc([n+]31)-c1cccc[n+]12.F[P-](F)(F)(F)(F)F (stereo not shown) [Complex 13] | 6.89 | 4.92 | 5.96 | 6.80 | 6.38 | 6.25 | 6.74 | 6.85 | 6.55 | 7.30 |  | 
COc1ccc(-c2cc3[n+]4c(c2)-c2cc5ccccc5c[c]2[Au-]4([c]2n(C)cc[n+]2C)[c]2cc4ccccc4cc2-3)cc1.O=S(=O)([O-])C(F)(F)F [Complex 8] | 4.74 | 6.05 | 6.00 | 6.59 | 6.25 | 6.89 | 6.74 | 6.38 | 6.02 | 6.30 |  | 
CCCCn1cc[n+](CCO)[c]1[Pt-2]12[c]3ccccc3-c3cccc([n+]31)-c1cc3ccccc3c[n+]12.F[P-](F)(F)(F)(F)F (stereo not shown) [Complex 25] |  | 4.96 | 6.17 | 6.06 |  |  |  |  |  | 6.35 |  | 
CCCC[n+]1ccn(CCCn2cc[n+](CCCC)[c]2[Pt-2]23[c]4ccccc4-c4cccc([n+]42)-c2cccc[n+]23)[c]1[Pt-2]12[c]3ccccc3-c3cccc([n+]31)-c1cccc[n+]12.F[P-](F)(F)(F)(F)F.F[P-](F)(F)(F)(F)F (stereo not shown) [Complex 16] |  | 4.57 | 5.15 | 5.25 |  |  |  |  |  | 5.41 |  | 
CCCCn1cc[n+](C[n+]2ccn(CCCC)[c]2[Au-]23[c]4cc5ccccc5cc4-c4cc(-c5ccc(OC)cc5)cc([n+]42)-c2cc4ccccc4c[c]23)[c]1[Au-]12[c]3cc4ccccc4cc3-c3cc(-c4ccc(OC)cc4)cc([n+]31)-c1cc3ccccc3c[c]12.O=S(=O)([O-])C(F)(F)F.O=S(=O)([O-])C(F)(F)F [Complex 9] | 5.42 | 5.00 | 5.35 | 5.35 | 5.04 | 5.15 | 5.26 | 5.30 | 5.21 | 5.14 |  | 
N.N.[Cl][Pt][Cl] [cisplatin, reference compound] |  | < 4.00 | 4.84 | 5.62 |  |  |  |  |  | 4.83 |  | 
COc1cccc2c1C(=O)c1c(O)c3c(c(O)c1C2=O)C[C@@](O)(C(=O)CO)C[C@@H]3O[C@H]1C[C@H](N)[C@H](O)[C@H](C)O1 [doxorubicin] |  |  |  |  |  |  |  |  |  |  | induced extensive strand breaks on chromosomal DNA | not
Cn1cc[n+](C)[c]1[Pt-2]12[c]3ccccc3-c3cccc([n+]31)-c1cccc[n+]12.F[P-](F)(F)(F)(F)F (stereo not shown) [Complex 11] | 6.21 | 5.24 | 6.51 | 6.29 | 5.51 | 6.24 | 6.24 | 6.18 | 5.82 | 6.48 |  | 
CC(C)c1cc(C(C)C)c(-n2cc[n+](-c3c(C(C)C)cc(C(C)C)cc3C(C)C)[c]2[Au-]23[c]4ccccc4-c4cccc([n+]42)-c2cccc[c]23)c(C(C)C)c1.O=S(=O)([O-])C(F)(F)F [Complex 4] | 5.35 | 4.96 | 5.72 | 5.26 | 5.11 | 5.96 | 5.21 | 5.44 | 5.43 | 5.57 |  | 
CCCC[n+]1ccn(Cn2cc[n+](CCCC)[c]2[Pt-2]23[c]4ccccc4-c4cccc([n+]42)-c2cccc[n+]23)[c]1[Pt-2]12[c]3ccccc3-c3cccc([n+]31)-c1cccc[n+]12.F[P-](F)(F)(F)(F)F.F[P-](F)(F)(F)(F)F (stereo not shown) [Complex 15] |  | 4.40 | 5.03 | 5.19 |  |  |  |  |  | 5.10 |  | 
